Where two headings read alike, the source gives them in different places.
Legend:
P. falciparum 3D7 = assay: 3-day SYBR Green I growth inhibition assay (GIA), strain 3D7; assay type: cell-based, Plasmodium falciparum; conditions: Plasmodium falciparum, 3D7, 72 h, read-out: Antiplasmodial activity EC50, 3D7
Summary of the method: (§1)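 Sorbitol-synchronized ring-stage parasites at 1% parasitemia and 2% hematocrit, cultured 72 h with compounds at 1% DMSO final. Growth read by SYBR Green I staining. EC50 from curve fitting.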

P. falciparum Dd2 = assay: 3-day SYBR Green I GIA, multidrug-resistant strain Dd2; assay type: cell-based, Plasmodium falciparum
Summary of the method: as §1

[1] = In vitro cytotoxicity analysis (CellTiter-Glo), HepG2; conditions: human, HepG2 cells
Procedure: (§2) In all, 1% DMSO was used as a negative control. The inhibition of each drug was normalized to that of the DMSO control. EC50 was calculated by GraphPad Prism. Three independent assays with two technical replicates each time were conducted in this experiment.

HepG2 cells = assay: as above; conditions: read-out: Cytotoxicity EC50, HepG2; 72 h, CellTiter-Glo
Procedure: as §2

[2] = In vitro cytotoxicity analysis (CellTiter-Glo), 293T; conditions: human, 293T cells, Cytotoxicity EC50, 293T, 72 h, CellTiter-Glo
Procedure: as §2

293T cells = assay: as above; conditions: read-out: Cytotoxicity EC50, 293T; 72 h, CellTiter-Glo
Procedure: as §2

[3] = Liver microsome metabolism assay, mouse; assay type: in vitro ADME
Procedure: Liver microsomes (0.5 mg/mL) were purchased from Corning. Ketanserin was selected as a positive control. The tested compounds were first dissolved in DMSO to a concentration of 10 mM and then diluted to 0.5 mM with acetonitrile. Liver microsome buffer was used to dilute the compounds to a working concentration of 1.5 µM, 30 µL of which was mixed with 15 µL of 6 mM NADPH at 37 °C. At 0, 5, 15, 30, and 45 min after incubation, 135 µL of acetonitrile was added to quench the reaction. The mixture was shaken on a vortex mixer (IKA, MTS 2/4) for 10 min at 600 rpm/min and then centrifuged at 5594× g for 15 min (Thermo Multifuge×3R). The supernatant was diluted 1:1 into distilled water, and analyzed by LC-MS/MS.

[4] = Pharmacokinetic assay in mice; assay type: in vivo, BALB/c mice; conditions: 5 mg/kg i.p.
Procedure: Five female BALB/c mice (6–8 weeks, 18–19 g) per group were purchased from JH Laboratory Animal Co., Ltd. All mice were raised at controlled temperature and humidity and had free access to food and water. Compounds were dissolved in 5% DMSO and diluted with 20% aqueous 2-hydroxypropyl-β-cyclodextrin solution to a stock concentration of 0.5 mg/mL. Each mouse was i.p. injected with the compound solution at a dose of 5 mg/kg. Blood samples collected by anticoagulant (K2EDTA)-containing tubes at 0.25, 0.5, 1, 2, 4, 8, and 24 h after injection were centrifuged at 2000× g at 4 °C for 5 min to obtain plasma. LC-MS/MS analysis of samples was carried out by an ACQUITY UPLC HSS T3 1.8-μm column. The mobile phase was a mixture of phase A (0.1% formic acid in water) and phase B (0.1% formic acid in acetonitrile), which ran in gradient mode at a flow rate of 0.6 mL/min at 60 °C. Mass spectra were obtained on an API6500 triple quadrupole equipped with an ESI source. Propranolol was used as an internal standard. The plasma concentrations of the compounds were analyzed, and the pharmacokinetic parameters were calculated via WinNonlin.

hSirt2 = target: T1, hSirt2 (Homo sapiens, UniProt Q8IXJ6); assay: Human HDAC inhibition assay, hSirt2; assay type: biochemical; conditions: performed only once; read-out: Inhibitory Activity IC50, hSirt2
T1 construct: purchased BPS Bioscience 50013
T1 sequence (Q8IXJ6 whole entry): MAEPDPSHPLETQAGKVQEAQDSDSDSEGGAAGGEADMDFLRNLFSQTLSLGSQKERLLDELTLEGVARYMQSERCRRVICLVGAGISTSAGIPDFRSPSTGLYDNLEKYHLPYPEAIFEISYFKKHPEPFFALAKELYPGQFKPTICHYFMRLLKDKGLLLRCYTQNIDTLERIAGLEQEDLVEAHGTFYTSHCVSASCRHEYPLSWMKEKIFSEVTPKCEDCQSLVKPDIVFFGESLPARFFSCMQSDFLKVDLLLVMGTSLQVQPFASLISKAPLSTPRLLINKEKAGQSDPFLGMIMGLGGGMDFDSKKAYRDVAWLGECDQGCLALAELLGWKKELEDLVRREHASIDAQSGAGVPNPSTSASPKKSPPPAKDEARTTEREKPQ
Procedure: SAHA and suramin were used as positive controls. The tested compounds were dissolved into 20 mM stock in 100% DMSO. […] Ten microliters of trypsin and Ac-peptide substrate/Tris buffer solution were added to start the reaction, followed by a 1-h incubation at room temperature for HDACs 1–3 and 6. Ten microliters of Ac-peptide substrate/Tris buffer solution was added to start the reaction, followed by a 4-h incubation at room temperature and a further 2-h incubation with trypsin solution for HDAC8 and Sirt 2. […] This experiment was performed only once.

[5] = tested on: parasite histone H3 acetylation; assay: Western blot of histone H3 acetylation in parasites; assay type: cell-based, Plasmodium falciparum; conditions: 4 h treatment of asynchronous 3D7; quisinostat/JX21108 5 and 20 nM, SAHA 500 nM
Procedure: Then the parasite samples were harvested and treated with 0.15% saponin to remove the RBC proteins and sonicated in 1% NP40 lysis buffer. After centrifugation at 12,000× g for 15 min, the supernatant was resuspended in a routine SDS loading buffer. Parasite proteins were separated by 10% SDS-PAGE and transferred onto PVDF membranes (Millipore). […] A2348) followed by a secondary antibody conjugated with HRP (Jackson Immuno Research Laboratories). The chemiluminescent HRP substrate Immobilon Western Kit (Millipore) was used for signal detection.

[6] = tested on: asynchronous 3D7 parasites; assay: Time- and dose-dependent parasite inhibition assay; assay type: cell-based, Plasmodium falciparum
Procedure: Asynchronous parasites (2% parasitemia, 4% hematocrit) were treated with the tested compounds at a concentration of 10, 30, 60, or 100 nM, respectively. At 3, 6, 12, and 24 h post treatment, parasitemia of each sample was detected by flow cytometry to investigate the time-dependent activity. Parasites from the same treatment were further washed to remove compounds, and parasitemia was diluted 1:40 by new RBCs into CM for an additional 4 days of culture. Parasitemia of each sample was detected by flow cytometry as described above to investigate the dose-dependent activity. DMSO was used as a blank control.

P. yoelii = assay: In vivo efficacy of the five HDAC inhibitor hits in rodent malaria model (Fig. S1c); design: species or system Plasmodium yoelii in BALB/c mice; conditions: i.p., three mice per group
Procedure: Fimepinostat Pinometostat
Sodium Phenylbutyrate 500 50
Givinostat hydrochloride monohydrate
Supplementary Fig. S1 Screening of epigenetic inhibitors against blood-stage P. […]
nM and 500 nM tested compounds compared to that with the DMSO control. b The EC50 values of five compounds against Pf3D7, HepG2 and 293T cells; SIa,EC 50 HepG2/ […]
of P. yoelii in BALB/c mice. Three mice were used in each group. Parasitemia was calculated from at least 5,000 red blood cells (RBCs) by microscopy . Blank, untreated group; PPQ, piperaquine phosphate. The administration route was intraperitoneal (i.p.). The data of a and b are from three independent biological replicates in […]
(also on this page, place not known: BET BromodominHDMHMT […] HDAC SI ±3.2 ±24 ±125 % Parasitemia microscopy. a) […]

[7] = female, BALB/c, mouse, plasma, ip

Cn1cc(CNCC2CCN(c3ncc(C(=O)NO)cn3)CC2)c2ccccc21 [Quisinostat, reference compound]
EC50 (P. falciparum 3D7): 5.2 ± 0.7 nM
EC50 (P. falciparum Dd2; Plasmodium falciparum, DD2, 72 h, read-out: Antiplasmodial activity EC50, Dd2, 3-day SYBR Green I GIA, multidrug-resistant strain Dd2): 7.1 nM
EC50 (P. falciparum Dd2; read-out: Antiplasmodial activity EC50, Dd2, 3-day SYBR Green I GIA, multidrug-resistant strain Dd2): 7.09 ± 0.01 nM
EC50 at 72 h [1]: 48 nM
EC50 (HepG2 cells): 42 ± 10 nM
EC50 at 72 h [2]: 42 nM
EC50 (293T cells): 48 ± 1 nM
T1/2 in liver microsomes [3]: 13.31 min
half-life at 1 µM ([3]; mouse, liver microsomes, read-out: T1/2 in liver microsomes): 13.3 min
CL/F [4]: 462 mL/min/kg
Cmax [4]: 88.7 ng/mL
Tmax [4]: 4.98 min
V/F [4]: 245 L/kg
plasma concentration ([4]; during 8–12 h after administration): ~ 2.5 ng/mL
AUC(0-inf) [4, 7]: 180 ng·h/mL
AUC(0-t) [4, 7]: 157 ng·h/mL
half-life [4, 7]: 368 min
IC50 (hSirt2): > 10000 nM
pan-acetylation levels of parasite histone H3 [5]: greatly increased the pan-acetylation levels of parasite histone H3
parasitemia measured 4 days after 6-h treatment ([6]; 6-h treatment, washed, 1:40 dilution, 4 days culture): substantial reduction in parasitemia
asexual growth of 3D7 after 12- and 24-h treatments ([6]; 10-100 nM, parasitemia immediately after treatment): significantly inhibited the asexual growth of 3D7 parasites
clearing of P. yoelii blood-stage infections (P. yoelii): remained effective in clearing P. yoelii blood-stage infections

Reference: publication PMC7733455, “A novel multistage antiplasmodial inhibitor targeting Plasmodium falciparum histone deacetylase 1” (Cell Discovery, 2020)
